According to patent US6645996B1, “Physiologically active substances” (Mercian Corporation and Eisai Co., Ltd., priority 1998, dated 2003):

Experiments:
[1] = system: mouse colon cancer (Colon 38-OT-7); experiment: Anti-metastatic effect: hepatic metastasis of mouse colon cancer transplanted to caecum; type: in vivo; details: for Toxic death: n 8
Method: The mouse colon cancer (Colon 38-OT-7) having a high incidence of the hepatic metastasis was transplanted to the mouse caecum. Then VD1207C was administered intraperitoneallyat each dose of 0.5, 1.0 and 2.0 mg/kg once a day since 12 days after the transplantation.

VCAM-1 = experiment: Inhibition of TNFα-induced expression of adhesion molecule VCAM-1 on endothelial cells; type: cell-based, human; details: HUVEC, TNFα 1 ng/ml, 4 hours; listed as C
Method: (§1) Endothelial cells derived from human umbilical vein (HUVEC) were cultured on a 96-well plate until they were fallen in a confluent state. The culture broth was removed. After 150 μl of a new culture broth was added to each well, 20 μl of a sample solution was added thereto. After 15 minutes, 30 μl of TNFα was added such that the final concentration became 1 ng/ml and it was incubated at 37° C. for 4 hours in a 5% CO2 incubator. Next, the culture broth was removed and the cells were washed twice with a phosphate buffer (PBS). Further, a PBS solution containing 0.025% glutaraldehyde was added and the well was allowed to stand at room temperature for 6 minutes to fix the cells. After the cells were immobilized, they were washed twice with 200 μl of phosphate buffer (PBSA) containing 0.25% BSA. Thereafter 100 μl of a PBSA solution containing 1 μg/ml of mouse anti-human VCAM-1 (R&D systems) or a mouse anti-human E-selectin antibody (R&D systems) was added to each well. The well was allowed to stand at room temperature for 30 minutes and then the cells were again washed. A PBSA solution containing 100 μl of peroxidase-conjugated goat anti-mouse antibody (Cosmo Bio Co., Ltd.) was added to the well. Then the well was allowed to stand at room temperature for 30 minutes and thereafter the cells were washed. In succession, 100 μl of 3,3*,5,5*-tetramethylbenzyidine (TMB) substrate solution was added to develop a color. Next, the coloring was stopped by 100 μl of 1M phosphoric acid to measure the absorbance at 450 nm.

[2] = Safety of VD1207 analogues, intraperitoneal administration over 4 days; type: in vivo; parameters: key to Blood (WBC) / Blood (PLAT) / Biochemistry (UN) / Biochemistry (GPT) / Weight (liver) / Weight (kidney) / Weight (lung) / Weight (spleen) / Body weight / Blood (RBC): —: “-” indicates no abnormality; “↑” and “↓” indicate an increase and a decrease, respectively; “↑” and “↓” indicate an increase and a decrease, respectively
Method: Each of VD1207B, C, D, E, F and G2 was continuously administered intraperitoneally at each dose of 1 mg/kg and 2 mg/kg over 4 days to examine the safety of VD1207 analogues.

[3] = system: Endothelial cells derived from human umbilical vein (HUVEC); experiment: Inhibitory effect of growth of endothelial cells (MTT method); type: cell-based; details: three days, listed as C
Method: Endothelial cells derived from human umbilical vein (HUVEC; manufactured by Sanko Junyaku) incubated in an EGM medium (manufactured by Sanko Junyaku) were adjusted to 1×10^4 cells/ml and each 100 μl were separately placed on a 96-well plate. After incubating overnight, 100 μl of medium containing sample were added thereto followed by incubating for three days. The cell numbers at that time were measured by MTT method. That is, 50 μl of PBS solution containing 0.33% of 3-(4,5-dimethylthiazol-2-yl)-2,5-diphenyltetrazolium bromide (MTT) was added thereto and incubation was continued for further 3-4 hours. After the supernatant liquid of the culture was removed, 100 μl of DMSO was added to dissolve a formazane which was formed in the cells and the absorbance at the wave length of 460 nm was measured by use of plate reader. The IC50 value is defined as a concentration that the absorbance was 50% of that observed when no sample was added.

[4] = system: angiogenesis induced by human colorectal cancer (WiDr cells); experiment: Antiangiogenic effect in vivo: chamber with WiDr cells transplanted to mouse, 51Cr-labeled erythrocytes; details: 1 mg/kg intraperitoneally once a day for 4 days
Method: Whether angiogenesis induced by human colorectal cancer (WiDr cells) was inhibited by administering VD1207C or not was studied to examine the antiangiogenic effect of VD1207C in vivo.
A chamber in which the WiDr cells were sealed was transplanted to a mouse. Then VD1207C was administered intraperitoneally at each dose of 0.5, 1.0 and 2.0 mg/kg for 4 days once a day. The amount of angiogenesis induced by the tumor was measured quantitatively by measuring the radiao activity in the skin touching with the chamber as the amount of blood by statically injecting erythrocytes labeled by ^51Cr. In FIG. 1, vascular volume generated at each dose of VD1207C is shown.

[5] = Solubility (analysis data); type: physicochemical
aorta pieces of rat = experiment: Inhibition of capillary formation in rat aorta model (aorta pieces cultured in collagen gel); type: cell-based; details: 7th day from addition of sample, listed as C
Method: In a method of screening the antiangiogenic effect, the degree of inhibition to the formation of lumens observed when an aortic fragment of a rat is cultured in a collagen gel was selected as an indicator (Nicosia R. F., Lab. Invest., 63, 115, 1990). Also, for the purpose of analyzing the mechanism of action of the antiangiogenic effect of the resulting compound, measurements were made concerning the effect of inhibiting the growth of endothelial cells by using endothelial cells derived from the human umbilical cord vein and the effect of inhibiting the expression of an adhesion molecules on endothelial cells.
The antiangiogenic potency was evaluated by the inhibition of capillary formation in rat aorta model in which aorta pieces of rat were cultured in collagen gel. That is, the aorta excised from male rat of Sprague-Dawley strain (8-12 weeks age) was washed with a Hanks' solution so that fat tissues around there were removed minutely. The aorta was incised to prepare pieces of 2 mm square and they were allowed to stand in a 24-well plate holding the endothelial cells upside. Then, 500 μl of neutralized Type I collagen (Cell Matrix Type I-A; manufactured by Nitta Gelatin) were poured over each well and allowed to stand at room temperature for about 20 minutes in a clean bench to solidify the gel. After gelling, 500 μl of MCDB 131 medium (manufactured by Chlorella Kogyo) were added thereto followed by incubating in a Co2 incubator (5% CO2) at 37° C. On the next day, the culture medium was exchanged with 500 μl of MCDB 131 medium containing the sample and the incubation was continued. And, at the stage of the 7th day from the addition of the sample, numbers of capillaries formed around the aorta were counted. The IC50 value of each sample is defined as a concentration that the number of blood capillaries is 50% of that observed when no sample was added.

E-selectin = experiment: Inhibition of TNFα-induced expression of adhesion molecule E-selectin on endothelial cells; type: cell-based, human; details: HUVEC, TNFα 1 ng/ml, 4 hours; listed as C
Method: as §1

collagen arthritis model = details: Peacock D J., J. Exp. Med. 175, 1135-8, 1992; cited from earlier work
[6] = 1 mg/kg i.p. 4 days, listed as C
[7] = 2 mg/kg i.p. 4 days, listed as C

Compound: CCCC(C(=O)c1cc(C(OC)C(C)C)c(O)c(C=O)c1O)C1CC(O)C2(OC2CC)C(O)O1 (single isomer, unassigned) [VD1207 C]
- Hepatic metastasis incidence ([1]; 0.5 mg/kg i.p. once a day): 5/7
- No. of metastatic nodules (mean ± STD) ([1]; 0.5 mg/kg i.p. once a day): (9.7 ± 12.2)
- No. of metastatic nodules, median ([1]; 0.5 mg/kg i.p. once a day): 1.0
- Toxic death ([1]; 0.5 mg/kg i.p. once a day): 1
- Hepatic metastasis incidence ([1]; 1.0 mg/kg i.p. once a day): 3/6
- No. of metastatic nodules (mean ± STD) ([1]; 1.0 mg/kg i.p. once a day): (1.2 ± 1.6)
- No. of metastatic nodules, median ([1]; 1.0 mg/kg i.p. once a day): 0.5
- Toxic death ([1]; 1.0 mg/kg i.p. once a day): 2
- Hepatic metastasis incidence ([1]; 2.0 mg/kg i.p. once a day): 0/5
- No. of metastatic nodules (individual animals) ([1]; 2.0 mg/kg i.p. once a day): no metastatic nodules was observed at all
- No. of metastatic nodules, median ([1]; 2.0 mg/kg i.p. once a day): 0
- Toxic death ([1]; 2.0 mg/kg i.p. once a day): 3
- Number of the metastatic nodules ([1]; dose ranging from 0.5 mg/kg): decreased the number of the metastatic nodules
- VCAM-1 (IC50 of expression) (VCAM-1): 0.85 µg/mL
- Weight of each of the liver, kidney and lung (autoptic findings) ([2]; 1 mg/kg and 2 mg/kg i.p. 4 days): increase
- Biochemistry (GPT) ([2]; 1 mg/kg i.p. 4 days): —
- Biochemistry (UN) ([2]; 1 mg/kg i.p. 4 days): —
- Blood (PLAT) ([2]; 1 mg/kg i.p. 4 days): —
- Blood (RBC) ([2]; 1 mg/kg i.p. 4 days): —
- Blood (WBC) ([2]; 1 mg/kg i.p. 4 days): —
- Body weight ([2]; 1 mg/kg i.p. 4 days): —
- Change in weight (FIGS. 2a and 2b) ([2]; 1 mg/kg i.p. 4 days): inhibition to an increase in weight
- Weight (liver) ([2]; 1 mg/kg i.p. 4 days): ↑
- Weight (spleen) ([2]; 1 mg/kg i.p. 4 days): —
- Weight (kidney) [2, 6]: ↑
- Weight (lung) [2, 6]: ↑
- Change in weight (FIGS. 2a and 2b) ([2]; 2 mg/kg i.p. 4 days): reduction in weight
- Blood (PLAT) [2, 7]: ↓
- Body weight [2, 7]: ↓
- Weight (kidney) [2, 7]: ↑
- Weight (lung) [2, 7]: ↑
- IC50 (growth of endothelial cells, absorbance 50% of no sample) [3]: 0.08 µg/mL
- Angiogenesis induced by WiDr cells (vascular volume) [4]: inhibited with a significant difference
- Solubility in ethyl acetate, chloroform and dimethyl sulfoxide [5]: soluble
- Solubility in neutral water [5]: insoluble
- IC50 (number of blood capillaries 50% of that without sample) (aorta pieces of rat): 0.050 µg/mL
- E-select (IC50 of expression) (E-selectin): 1.23 µg/mL

Compound: CO[C@@H]1[C@H](OC(=O)NC(=O)CCl)CC[C@]2(CO2)[C@H]1[C@@]1(C)O[C@@H]1CC=C(C)C [AGM-470]
- Arthritis in a collagen arthritis model (collagen arthritis model): inhibits arthritis
